From ChEMBL document CHEMBL4354832, “Discovery of a Covalent Inhibitor of KRASG12C (AMG 510) for the Treatment of Solid Tumors” (J Med Chem, 2020)
≈ marks a conversion by molar mass, not a printed value. Calls of active or inactive are those of the source. The rule behind the calls is not given here.

How the values were obtained:
[1] = Volume of distribution at steady state in BALB/c mouse at 1 mg/kg, iv or 10 mg/kg, po; type: ADME, organism-based; conditions: in vivo, read-out: Vdss
[2] = Half life in BALB/c mouse at 1 mg/kg, iv or 10 mg/kg, po; type: ADME, organism-based; conditions: in vivo
[3] = Solubility of compound in FaSSIF incubated for 48 to 72 hrs under shaking conditions by LCMS analysis; type: physicochemical
[4] = Solubility of compound in 0.01N HCl at pH 2 incubated for 48 to 72 hrs under shaking conditions by LCMS analysis; type: physicochemical
[5] = tested on: MIA PaCa-2; experiment: Antiproliferative activity against human MIAPaCa2 cells harboring KRAS G12C point mutant assessed as cell growth inhibition after 72 hrs by Celltiter-Glo luminescent cell viability assay; type: functional, cell-based; conditions: MIA PaCa-2, 72 h
[6] = Permeability of compound across apical to basolateral membrane in MDCK2 cells at 10 to 50 uM incubated for 2 hrs under shaking condition by LC-MS/MS analysis; type: ADME, cell-based, Canis lupus familiaris, MDCK-II; conditions: dog, MDCK; read-out: permeability
[7] = tested on: A549; experiment: Antiproliferative activity against human A549 cells harboring KRAS G12S point mutant assessed as cell growth inhibition after 72 hrs by Celltiter-Glo luminescent cell viability assay; type: functional, cell-based; conditions: A549, 72 h
[8] = Clearance in BALB/c mouse at 1 mg/kg, iv or 10 mg/kg, po; type: ADME, organism-based; conditions: in vivo
[9] = target: GTPase KRas (Homo sapiens, UniProt P01116); experiment: Inhibition of KRAS in human MIAPaca2 cells assessed as decrease in EGF-stimulated ERK1/2 phosphorylation preincubated for 2 hrs followed by EGF stimulation; type: cell-based
[10] = Intrinsic clearance in human cryopreserved hepatocytes assessed per 10^6 cells at 0.5 uM measured upto 60 mins by LCMS analysis; type: ADME, cell-based, Hepatocyte; conditions: read-out: CLH
[11] = Oral bioavailability in BALB/c mouse at 10 mg/kg; type: ADME, organism-based; conditions: in vivo
[12] = Intrinsic clearance in mouse cryopreserved hepatocytes assessed per 10^6 cells at 0.5 uM measured upto 60 mins by LCMS analysis; type: ADME, cell-based, Hepatocyte; conditions: read-out: CLH
[13] = Solubility of compound in PBS buffer at pH 7.4 incubated for 48 to 72 hrs under shaking conditions by LCMS analysis; type: physicochemical
[14] = Half life of compound at 25 degree C; type: physicochemical
[15] = target: GTPase KRas (Homo sapiens, UniProt P01116, C118A/G12C); experiment: Inhibition of GDP bound recombinant human His-tagged KRAS G12C/C118A mutant (1 to 169 residues) assessed as reduction in SOS1-mediated GDP/GTP nucleotide exchange by measuring the disruption between GDP-bound recombinant His-tagged KRAS G12C/C118A (1 to 169 residues) and Ras binding domain of GST-tagged c-RAF (1 to 149 residues) preincubated for 5 mins followed by SOS1 and GTP addition and further incubated for 30 mins by AlphaLISA assay
[16] = Protein binding in BALB/c mouse plasma assessed as unbound fraction by ultracentrifugation; type: ADME, cell-free
[17] = Ratio of unbound plasma concentration in BALB/c mouse at 10 mg/kg to IC50 for inhibition of KRAS in human MIAPaca2 cells assessed as decrease in EGF-stimulated ERK1/2 phosphorylation preincubated for 2 hrs followed by EGF stimulation; type: organism-based; conditions: in vivo
[18] = tested on: Mus musculus; experiment: Decrease in ERK1/ERK2 phosphorylation in human MIAPaCa2 cells xenografted in athymic nude mouse at 10 to 100 mg/kg, po administered as single dose measured after 60 to 120 mins post-treatment; type: functional, organism-based
[19] = Half life of compound in aqueous phosphate buffer at pH 7.4 and at 37 degree C in presence of 5 mM GSH; type: physicochemical; conditions: aqueous phosphate buffer with 5 mM GSH
[20] = Clearance in Sprague-Dawley rat at 1 mg/kg, iv or 10 mg/kg, po; type: ADME, organism-based; conditions: in vivo
[21] = Protein binding in plasma of Sprague-Dawley rat assessed as unbound fraction at […] by ultracentrifugation; type: ADME, cell-free
[22] = Clearance in Beagle dog at 1 mg/kg, iv or 10 mg/kg, po; type: ADME, organism-based, Canis lupus familiaris; conditions: in vivo
[23] = tested on: MIA PaCa-2; experiment: Antitumor activity against human MIAPaCa2 cells harboring KRAS G12C point mutant xenografted in athymic nude mouse assessed as tumor growth inhibition at 10 mg/kg, po qd measured after 26 days relative to control; type: functional
[24] = Protein binding in plasma of human assessed as unbound fraction at […] by ultracentrifugation; type: ADME, cell-free
[25] = Half life in Sprague-Dawley rat at 1 mg/kg, iv or 10 mg/kg, po; type: ADME, organism-based; conditions: in vivo
[26] = Volume of distribution at steady state in Sprague-Dawley rat at 1 mg/kg, iv or 10 mg/kg, po; type: ADME, organism-based; conditions: in vivo, read-out: Vdss
[27] = Oral bioavailability in Sprague-Dawley rat at 10 mg/kg; type: ADME, organism-based; conditions: in vivo
[28] = tested on: MIA PaCa-2; experiment: Antitumor activity against human MIAPaCa2 cells harboring KRAS G12C point mutant xenografted in athymic nude mouse assessed as tumor regression at 30 mg/kg, po qd measured after 26 days relative to control; type: functional
[29] = Unbound plasma concentration in athymic nude mouse xenografted with human MIAPaCa2 cells at 10 mg/kg, po qd after 8 hrs post-last dose; type: ADME, organism-based; conditions: in vivo
[30] = tested on: MIA PaCa-2; experiment: Antitumor activity against human MIAPaCa2 cells harboring KRAS G12C point mutant xenografted in athymic nude mouse assessed as tumor regression at 100 mg/kg, po qd measured after 26 days relative to control; type: functional
[31] = Tmin in plasma of athymic nude mouse xenografted with human MIAPaCa2 cells at > 10 mg/kg, po administered as single dose; type: ADME, organism-based; conditions: in vivo
[32] = Time taken to achieve Cmax in tumor of athymic nude mouse xenografted with human MIAPaCa2 cells at > 10 mg/kg, po administered as single dose; type: ADME, organism-based, Neoplasm; conditions: read-out: tCmax (converted)
[33] = tested on: Mus musculus; experiment: Decrease in ERK1/ERK2 phosphorylation in human MIAPaCa2 cells xenografted in athymic nude mouse at > 10 mg/kg, po administered as single dose measured after 60 to 120 mins post-treatment; type: functional, organism-based
[34] = tested on: MIA PaCa-2; experiment: Antitumor activity against human MIAPaCa2 cells harboring KRAS G12C point mutant xenografted in athymic nude mouse assessed as tumor regression at >= 30 mg/kg, po qd measured after 26 days; type: functional, organism-based
[35] = Time taken to achieve Cmax in plasma of athymic nude mouse xenografted with human MIAPaCa2 cells at > 10 mg/kg, po administered as single dose; type: ADME, organism-based; conditions: read-out: tCmax (converted)
[36] = Protein binding in plasma of Beagle dog assessed as unbound fraction at […] by ultracentrifugation; type: ADME, cell-free, Canis lupus familiaris
[37] = Half life in Beagle dog at 1 mg/kg, iv or 10 mg/kg, po; type: ADME, organism-based, Canis lupus familiaris; conditions: in vivo
[38] = Oral bioavailability in Beagle dog at 10 mg/kg; type: ADME, organism-based, Canis lupus familiaris; conditions: in vivo
[39] = Protein binding in plasma of BALB/c mouse assessed as unbound fraction at […] by ultracentrifugation; type: ADME
[40] = Volume of distribution at steady state in Beagle dog at 1 mg/kg, iv or 10 mg/kg, po; type: ADME, organism-based, Canis lupus familiaris; conditions: in vivo, read-out: Vdss

C=CC(=O)N1CCN(c2nc(=O)n(-c3ccccc3C(C)C)c3nc(-c4c(O)cccc4F)c(Cl)cc23)[C@@H](C)C1 (stereo in doubt; (R)-18)
Vd [1]: 0.4 L/kg
half-life [2]: 78 min
solubility thermodynamic [3]: 184 µM (≈ 103 µg/mL)
solubility thermodynamic [4]: 7 µM (≈ 3.93 µg/mL)
IC50 [5]: 5 nM
Papp A→B at 2 h, up to 50 µM [6]: 9 ×10⁻⁶ cm/s
IC50 [7]: 14200 nM
clearance [8]: 6.67 mL/min/kg
IC50 [9]: 44 nM
hepatocyte CLint at 0.5 µM [10]: 38 µL/min/1e6 cells
bioavailability [11]: 33%
hepatocyte CLint at 0.5 µM [12]: 119 µL/min/1e6 cells
solubility thermodynamic [13]: 9 µM (≈ 5.06 µg/mL)
t1/2 [14]: 5 h
IC50 [15]: 51 nM

C=CC(=O)N1CCN(c2nc(=O)n(-c3c(C(C)C)ncnc3C(C)C)c3nc(-c4c(O)cccc4F)c(Cl)cc23)[C@@H](C)C1
half-life [2]: 48 min
clearance [8]: 38.3 mL/min/kg
IC50 [9]: 25 nM
fraction unbound [16]: 0.03
bioavailability [11]: 13%
IC50 [15]: 21 nM
Ratio [17]: 0.8

C=CC(=O)N1CCN(c2nc(=O)n(-c3c(C)cccc3C(C)C)c3nc(-c4c(O)cccc4F)c(Cl)cc23)[C@@H](C)C1
half-life [2]: 30 to 54 min
solubility thermodynamic [3]: 204 µM (≈ 118 µg/mL)
solubility thermodynamic [4]: 9 µM (≈ 5.18 µg/mL)
IC50 [5]: 2 nM
Papp A→B at 2 h, up to 50 µM [6]: 15 ×10⁻⁶ cm/s
inhibition [18]: Active
IC50 [7]: 11900 nM
clearance [8]: 23.3 to 45 mL/min/kg
IC50 [9]: 28 nM
hepatocyte CLint at 0.5 µM [10]: 30 µL/min/1e6 cells
fraction unbound [16]: 0.03
bioavailability [11]: 4 to 21%
hepatocyte CLint at 0.5 µM [12]: 102 µL/min/1e6 cells
solubility thermodynamic [13]: 12 µM (≈ 6.91 µg/mL)
Ratio [17]: 4.5

C=CC(=O)N1CCN(c2nc(=O)n(-c3c(C)ccnc3C(C)C)c3nc(-c4c(O)cccc4F)c(F)cc23)[C@@H](C)C1 [SOTORASIB]
half-life [19]: 200 min
clearance [20]: 56.7 mL/min/kg
Vd [1]: 0.7 L/kg
fraction unbound at […] [21]: 0.05
clearance [22]: 36.7 mL/min/kg
TGI [23]: 86%
fraction unbound at […] [24]: 0.09
half-life [25]: 30 min
Vd [26]: 2 L/kg
half-life [2]: 30 min
solubility thermodynamic [3]: 492 µM (≈ 276 µg/mL)
solubility thermodynamic [4]: 499 µM (≈ 280 µg/mL)
IC50 [5]: 5 nM
Papp A→B at 2 h, up to 50 µM [6]: 6 ×10⁻⁶ cm/s
IC50 [7]: 36500 nM
clearance [8]: 26.7 mL/min/kg
bioavailability [27]: 2.8%
hepatocyte CLint at 0.5 µM [10]: 9 µL/min/1e6 cells
inhibition (INH) [28]: 34%
Cp(f) [29]: < 1 nM
inhibition (INH) [30]: 62%
bioavailability [11]: 22 to 40%
Tmin [31]: 120 min
Tmax [32]: 30 min
inhibition [33]: Active
inhibition [34]: Active
Tmax [35]: 30 min
hepatocyte CLint at 0.5 µM [12]: 36 µL/min/1e6 cells
fraction unbound at […] [36]: 0.17
half-life [37]: 24 min
solubility thermodynamic [13]: 423 µM (≈ 237 µg/mL)
bioavailability [38]: 0.34%
fraction unbound at […] [39]: 0.06
Vd [40]: 0.73 L/kg

C=CC(=O)N1CCN(c2nc(=O)n(-c3c(C4CC4)ncnc3C3CC3)c3nc(-c4c(O)cccc4F)c(Cl)cc23)[C@@H](C)C1
half-life [2]: 30 min
clearance [8]: 55 mL/min/kg
IC50 [9]: 36 nM
fraction unbound [16]: 0.08
bioavailability [11]: 7%
Ratio [17]: 0.6

C=CC(=O)N1CCN(c2nc(=O)n(-c3c(CC)cccc3CC)c3nc(-c4c(O)cccc4F)c(Cl)cc23)[C@@H](C)C1
half-life [2]: 30 min
clearance [8]: 55 mL/min/kg
IC50 [9]: 36 nM
fraction unbound [16]: 0.03
bioavailability [11]: 8%
IC50 [15]: 68 nM
Ratio [17]: 0.8

C=CC(=O)N1CCN(c2nc(=O)n(-c3c(C)ccnc3C(C)C)c3nc(-c4c(O)cccc4F)c(Cl)cc23)[C@@H](C)C1
Vd [1]: 0.8 L/kg
half-life [2]: 24 min
solubility thermodynamic [3]: 381 µM (≈ 220 µg/mL)
solubility thermodynamic [4]: 500 µM (≈ 289 µg/mL)
IC50 [5]: 1 nM
Papp A→B at 2 h, up to 50 µM [6]: 1 ×10⁻⁶ cm/s
IC50 [7]: 34100 nM
clearance [8]: 65 mL/min/kg
hepatocyte CLint at 0.5 µM [10]: 11 µL/min/1e6 cells
bioavailability [11]: < 0.5%
hepatocyte CLint at 0.5 µM [12]: 75 µL/min/1e6 cells
solubility thermodynamic [13]: 46 µM (≈ 26.5 µg/mL)

C=CC(=O)N1CCN(c2nc(=O)n(-c3scnc3C(C)C)c3nc(-c4c(O)cccc4F)c(Cl)cc23)[C@@H](C)C1
half-life [2]: 66 min
clearance [8]: 36.7 mL/min/kg
IC50 [9]: 63 nM
fraction unbound [16]: 0.02
bioavailability [11]: 22%
Ratio [17]: 1.5

C=CC(=O)N1CCN(c2nc(=O)n(-c3ccccc3C(C)C)c3nc(-c4c(O)cccc4F)c(Cl)cc23)[C@@H](C)C1 (stereo in doubt; (S)-18)
t1/2 [14]: 190 h
